Test results taken from PubChem BioAssay (NCI).
“And” between values parts separate entries of the source, which are not always exact repeats. Identical values can stand only once.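 These data come from cells grown in 96-well plates and exposed to compound for 48 hours at five concentrations. At the GI50, growth is halved. TGI: concentration producing complete growth inhibition.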

Legend:
Assay in all cases: inhibition of tumour cell growth, NCI panel, 48 h
BT-549 breast = system: BT-549 breast
COLO 205 colon = system: COLO 205 colon
HCT-116 colon = system: HCT-116 colon
HOP-62 NSCLC = system: HOP-62 NSCLC
M14 melanoma = system: M14 melanoma
MDA-MB-231 breast = system: MDA-MB-231 breast
OVCAR-3 ovarian = system: OVCAR-3 ovarian
OVCAR-8 ovarian = system: OVCAR-8 ovarian
SW-620 colon = system: SW-620 colon
CAKI-1 renal = system: CAKI-1 renal

| SMILES | GI50 (BT-549 breast) | TGI (BT-549 breast) | GI50 (COLO 205 colon) | TGI (COLO 205 colon) | GI50 (HCT-116 colon) | TGI (HCT-116 colon) | GI50 (HOP-62 NSCLC) | TGI (HOP-62 NSCLC) | GI50 (M14 melanoma) | TGI (M14 melanoma) | GI50 (MDA-MB-231 breast) | TGI (MDA-MB-231 breast) | GI50 (OVCAR-3 ovarian) | TGI (OVCAR-3 ovarian) | GI50 (OVCAR-8 ovarian) | TGI (OVCAR-8 ovarian) | GI50 (SW-620 colon) | TGI (SW-620 colon) | TGI (CAKI-1 renal) | GI50 (CAKI-1 renal) |
| --- | --- | --- | --- | --- | --- | --- | --- | --- | --- | --- | --- | --- | --- | --- | --- | --- | --- | --- | --- | --- |
| CCCCCCCCN(CCCCCCCC)CC(O)c1cc(-c2ccccc2)nc2ccc(OC)cc12 (stereo not drawn) | 23.9 µM | 64 µM | 22.1 µM | > 100 µM | 15.7 µM | 68.4 µM | 30.4 µM | > 100 µM | 20.3 µM | 68.5 µM | 11.1 µM | > 100 µM | 21.2 µM | 61.2 µM | 32.2 µM | > 100 µM | 16.5 µM | > 100 µM |  |  |
| O=C1c2ccccc2C(=O)N1CC#CCO |  |  |  |  |  | > 100 µM |  | > 100 µM |  | > 100 µM |  |  |  | > 100 µM |  | > 100 µM |  | > 100 µM | > 100 µM |  |
| O=C(Nc1ccc(Br)cc1)C(=O)C(C(=O)c1ccc(Cl)c(Cl)c1)C1OC(=O)c2ccccc21 (stereo not drawn) |  |  |  | 34.8 µM |  | 25.9 µM |  | 32.5 µM |  | 31.9 µM |  |  |  | 67.3 µM |  | 32.3 µM |  | 38.4 µM | 51.3 µM |  |
| CC(C)N1CC2CC(CN(C(=O)c3ccc(Cl)cc3)C2)C1 |  |  |  | > 100 µM |  |  |  | > 100 µM |  | > 100 µM |  |  |  | > 100 µM |  | > 100 µM |  | > 100 µM | > 100 µM |  |
| Cc1ccc(/C=C2\CCCCC2=O)cc1 |  |  |  | > 100 µM |  | > 100 µM |  | > 100 µM |  | > 100 µM |  |  |  | > 100 µM |  | > 100 µM |  | > 100 µM | > 100 µM |  |
| Cc1cc(-c2ccccc2)nc(Nc2cc3ccccc3[nH]2)n1 |  |  |  | > 100 µM |  | > 100 µM |  | > 100 µM |  | > 100 µM |  |  |  | > 100 µM |  | > 100 µM |  | > 100 µM | > 100 µM |  |
| CCCCCCC(=O)NC1=C(N2CC2)C(=O)C(NC(=O)CCCCCC)=C(N2CC2)C1=O | 31.3 µM | > 100 µM |  |  |  |  | 5.35 µM | > 100 µM | 2.25 µM | > 100 µM | 3.89 µM | > 100 µM | 1.53 µM | 4.85 µM |  |  | 2.25 µM | > 100 µM | > 100 µM | 1.93 µM |
| O=[N+]([O-])c1ccc2c(c1)C(N1CCN(CCO)CC1)Cc1ccc(F)cc1S2 (stereo not drawn) |  | 23.1 µM |  | 28.7 µM |  | 19.7 µM |  | 43.8 µM |  |  |  | 28.2 µM |  | 54.6 µM |  | 25.5 µM |  | 19.3 µM | 26.3 µM |  |
| C=CCC1(CN(C)C)CC/C(=C\c2ccc3c(c2)OCO3)C1=O (stereo not drawn) |  |  |  | 54.1 µM |  | > 100 µM |  | > 100 µM |  | > 100 µM |  |  |  | > 100 µM |  | > 100 µM |  | > 100 µM | > 100 µM |  |
| O=C(Nc1nc2c(C(F)(F)F)cccc2s1)c1cc(Cl)ccc1O | 0.305 µM | 1.79 µM | 0.52 µM | 2.42 µM | 0.352 µM | 11.2 µM | 0.312 µM | 19.3 µM | 0.35 µM | 22.8 µM | 0.27 µM | 0.952 µM | 0.375 µM | 74.7 µM | 0.326 µM | 53.8 µM | 0.364 µM | 16.3 µM |  |  |
| NC(=O)NNC/C(Cl)=C(\Cl)C(=O)O |  |  |  | > 100 µM |  | > 100 µM |  | > 100 µM |  | > 100 µM |  |  |  | > 100 µM |  | > 100 µM |  | > 100 µM | > 100 µM |  |
| CC1(c2ccc(F)cc2)C2C(=O)NC(=O)C1C(=O)NC2=O (stereo not drawn) |  |  |  | > 100 µM |  |  |  |  |  | > 100 µM |  |  |  | > 100 µM |  | > 100 µM |  | > 100 µM | > 100 µM |  |
| c1ccc2c(N=NSc3ncnc4nc[nH]c34)c3ccccc3nc2c1 | 2.76 µM | 8.7 µM | 0.428 µM | 1.76 µM | 0.53 µM | 11.6 µM | 1.2 µM | 5.71 µM | 1.7 µM | 4.12 µM | 1.24 µM | 6.11 µM | 2.43 µM | 8.78 µM | 1.5 µM | 2.96 µM |  |  | 7.07 µM | 1.76 µM |
| O=C(NC1CCC[C@H]1OC(=O)c1ccccc1)c1ccccc1 (stereo partly drawn) |  |  |  |  |  | > 100 µM |  |  |  | > 100 µM |  |  |  | > 100 µM |  | > 100 µM |  | > 100 µM | > 100 µM |  |
| COc1nn(C)cc1Nc1nccc(-c2c[nH]c3c(NC(=O)[C@@H](C)N4CCN(C)CC4)cccc23)n1 | 22.5 µM | 72.9 µM |  |  | 34.3 µM | > 100 µM | 23.1 µM | > 100 µM | 18.9 µM | 41.2 µM | 34.9 µM | > 100 µM | 56.1 µM | > 100 µM | > 100 µM | > 100 µM | 40.8 µM | > 100 µM | > 100 µM | 29.2 µM |
| CCCCCCCCCC1CC(=O)OC2=C1C(=O)CCC2 (stereo not drawn) |  |  |  | > 100 µM |  | > 100 µM |  | > 100 µM |  | > 100 µM |  |  |  | > 100 µM |  | > 100 µM |  | > 100 µM | > 100 µM |  |
| CC1C(c2ccccc2)N(C)C(c2ccccc2)C(C)C1(O)c1ccccc1 (stereo not drawn) |  |  |  | 58.7 µM |  | > 100 µM |  | > 100 µM |  | > 100 µM |  |  |  | > 100 µM |  | > 100 µM |  | > 100 µM | > 100 µM |  |
| Cc1cc(OCc2ccc(C(F)(F)F)cc2)c2c(c1)C(=O)C=C(NCCN1CCCC1)C2=O | 2.05 µM | 5.36 µM | 1.9 µM | 3.72 µM | 1.85 µM | 3.9 µM | 3.44 µM | 13.2 µM | 1.88 µM | 3.56 µM |  |  | 2.52 µM | 6.47 µM | 3.25 µM | 12.1 µM | 1.78 µM | 3.48 µM | 4.83 µM | 1.79 µM |
| COc1cc2c(cc1OCC(=O)Nc1ccc(Cl)cc1C(=O)c1ccccc1Cl)N=CC1CCCN1C2=O (stereo not drawn) |  |  | 14.2 µM | 30.8 µM | 7.18 µM | 20.5 µM | 13.8 µM | 28.6 µM | 14.1 µM | 27.9 µM | 10.7 µM | 25.7 µM | 3.72 µM | 14.6 µM | 12 µM | 26.3 µM | 11.8 µM | 25.8 µM | 28.3 µM | 13.6 µM |
| COc1cc(/C=C2\[C@@H]3NC(Cc4c(OC)c(C)c(OC)c(OC)c43)C(=O)N2Cc2ccccc2)c(OC)c(C)c1OC |  |  |  | 28.3 µM |  | > 100 µM |  | > 100 µM |  | > 100 µM |  |  |  | > 100 µM |  | > 100 µM |  | > 100 µM | 89 µM |  |
| COc1ccc(C(=O)/C=C/c2ccc(OCc3cccc(C(F)(F)F)c3)c(OC)c2)cc1OC | 38.1 µM | 476 µM | 61.6 µM | > 1000 µM | 34.9 µM | > 1000 µM | 51.5 µM | > 1000 µM | 70.9 µM | > 1000 µM | 51.1 µM | > 1000 µM | 48.4 µM | > 1000 µM | 48.8 µM | > 1000 µM | 49.7 µM | > 1000 µM |  |  |
| O=C(Nc1ccc(Cl)c(Cl)c1)c1ccc(NC2=C(Cl)C(=O)N(Cc3ccccc3)C2=O)cc1 | 3.29 µM | 10.6 µM | 20 µM | 66.6 µM | 1.94 µM | 4.25 µM | 17.4 µM | 31.3 µM | 17.1 µM | 32.9 µM | 3.06 µM | 9.41 µM | 2.14 µM | 4.86 µM | 2.6 µM | 4.41 µM |  |  | 12.6 µM | 3 µM |
| CCCCCCCCCCCCCCNCC(OC)OC |  |  |  | 28.3 µM |  | 26 µM |  | 31.8 µM |  | 27.4 µM |  |  |  | 32.6 µM |  | 44.3 µM |  | 33.2 µM |  |  |
| CCO/C=C\C12CCCC1NC(c1ccccc1)(c1ccccc1)O2 (stereo not drawn) |  |  |  |  |  | > 100 µM |  | > 100 µM |  | 66 µM |  |  |  | 55.7 µM |  | > 100 µM |  | > 100 µM | 65.6 µM |  |
| CC1(C)CC(=O)C(CC2C(=O)CCCC2=O)C(=O)C1 |  |  |  | > 100 µM |  | > 100 µM |  | > 100 µM |  | > 100 µM |  |  |  | > 100 µM |  | > 100 µM |  | > 100 µM | > 100 µM |  |
| CCN1CCN(c2ccc(NC(=O)Nc3nc4ccc(-c5ccccc5OC)cc4s3)cc2)CC1 | 1.88 µM | 3.73 µM | 1.97 µM | 3.85 µM | 1.58 µM | 3.01 µM |  |  | 1.62 µM | 3.03 µM | 1.72 µM | 3.28 µM | 1.64 µM | 3.11 µM | 1.99 µM | 3.66 µM | 1.94 µM | 3.55 µM |  |  |
| CN(C(=O)C(C)(C)C)c1ccccc1I(=O)=O | > 100 µM | > 100 µM | 60.7 µM | > 100 µM |  |  |  |  |  |  | > 100 µM | > 100 µM | > 100 µM | > 100 µM | > 100 µM | > 100 µM | > 100 µM | > 100 µM | > 100 µM | > 100 µM |
| COc1cc(C2c3cc4c(cc3[C@@H](NC3CCN(Cc5ccccc5)CC3)C3COC(=O)[C@H]23)OCO4)cc(OC)c1O (stereo partly drawn) |  |  | 0.372 µM and 0.179 µM |  |  | 2.28 µM and 1.59 µM |  | 0.206 µM and 0.146 µM | 0.18 µM and 0.0484 µM | 0.744 µM and 0.346 µM |  |  |  | 1.56 µM and 1.04 µM |  | 0.587 µM | 0.232 µM and 0.076 µM | 2.42 µM and 1.08 µM | 0.694 µM and 2 µM | 0.0372 µM and 0.277 µM |
| COc1ccc(N=NC2=C(O)CCC2=O)cc1 |  |  |  | > 100 µM |  | > 100 µM |  | > 100 µM |  | > 100 µM |  |  |  | > 100 µM |  | > 100 µM |  | > 100 µM | > 100 µM |  |
